Earlier results in patent publication US7074826B2, “R-NSAID esters and their use” (Encore Pharmaceuticals, Inc., priority 2002, dated 2006).

Tests used:
Alzheimer's dementia = details: limited clinical trial

SMILES: CC(C)Cc1ccc(C(C)C(=O)O)cc1 (racemic) [racemic ibuprofen, ibuprofen]
- adverse effects of high doses (cystic fibrosis patients; high doses employed in the Konstan study): conjunctivitis and epistaxis
- progression of the lung disease (cystic fibrosis patients; high doses, cystic fibrosis patients, four-year period): slows progression of the lung disease

SMILES: O=c1[nH]cc(F)c(=O)[nH]1 [5-fluorouracil]
- survival among colon cancer patients (colon cancer patients; administered alone): No improvement in survival

SMILES: COc1ccc2c(c1)c(CC(=O)O)c(C)n2C(=O)c1ccc(Cl)cc1 [indomethacin]
- progression of Alzheimer's dementia (Alzheimer's dementia): retardation in the progression of Alzheimer's dementia

SMILES: c1ccc([C@H]2CN3CCSC3=N2)cc1 [levamisole]
- survival rate among colon cancer patients (colon cancer patients; added to 5-fluorouracil): improved survival rate
